Data taken from article PMC6739136 (Neuropeptides, 2019).

System: urinary bladder pressure, anesthetized minipigs
Test: Cystometry
Assay type: in vivo, minipig (Gottingen, Sinclair)
Conditions: GR 159897 1 mg/kg IV, 15 min prior to LMN-NKA, N=2, anesthetized minipigs, DT-063

COC1(C[S@@+]([O-])c2ccccc2)CCN(CCc2c[nH]c3ccc(F)cc23)CC1 [GR 159897, 5-Fluoro-3-[2-[4-methoxy-4-[[(R)-phenylsulphinyl]methyl]-1-piperidinyl]ethyl]-1H-indole]
effect on increase in bladder pressure induced by 100 μg/kg SC of LMN-NKA: blocked
